Earlier results in patent publication US20250017894A1, “Formulation for Nasal Delivery of Cannabinoids” (priority 2019, published 2025).

C=C(C)[C@@H]1CCC(C)=C[C@H]1c1c(O)cc(CCCCC)cc1O [CBD, Cannabidiol]
bioavailability, inhalation using vaporized CBD (inhalation of vaporized CBD): 26-36%
bioavailability for intranasal administration (intranasal administration): 34-46%
oral bioavailability (oral administration): 6-15%
bioavailability, sublingual administration (sublingual administration): 20-35%
